Measurements: article PMC8067507, “Aryl Urea Based Scaffolds for Multitarget Drug Discovery in Anticancer Immunotherapies” (Pharmaceuticals, 2021)

What was measured:
[1] = tested on: all tested cell lines (HT-29, MCF-7, HeLa, A549, HMEC-1, HEK-293); parameters: method as in PMID 30878834; settings: chlorophenyl derivatives of the previous study; read-out: IC50 values (range over cell lines); cited from earlier work
c-Myc [2] = assay: c-Myc quantification by flow cytometry in HT-29; format: cell-based, human; settings: HT-29, 10 μM, 24 h, referred to control (DMSO)
Description: (§1) We evaluated the effect of the selected compounds on PD-L1 and on c-Myc proteins by flow cytometry after 24 h treatment at 10 μM concentration of compounds. Both, PD-L1 and c-Myc were relatively determined using DMSO treated cells as a negative control and BMS-8 as a positive one.
(§2) For the detection of total PD-L1 and c-Myc, cancer cells were seeded (3 × 10^5 cells/well) in 6-well plates and were incubated with the corresponding compounds for 24 h. Then they were collected, fixed, treated with 0.5% Triton^TM X-100 and stained with Alexa Fluor® 647 Rabbit monoclonal Anti-PD-L1 (ab215251) and FITC Rabbit monoclonal anti-c-Myc (ab223913).
(§3) We also checked results performing ELISA tests. For ELISA tests, lysates were collected, protein quantification was carried out by Bradford test and, then, PD-L1 and c-Myc were quantified using Human PD-L1 ELISA Kit 28-8 (ab214565) and c-Myc (Total) Human ELISA Kit (KHO2041), respectively, according to the manufacturer’s instructions.

PD-L1 [3] = molecular target: T1, PD-L1 (Homo sapiens, UniProt Q9NZQ7); assay: PD-L1 quantification by flow cytometry in HT-29; format: cell-based; settings: HT-29, 10 μM, 24 h, referred to control (DMSO)
Description: as §1, §2, §3

c-Myc [4] = assay: c-Myc quantification by flow cytometry in A-549; format: cell-based, human; settings: A-549, 10 μM, 24 h, referred to control (DMSO)
Description: as §1, §2, §3

VEGFR-2 [5] = molecular target: T2, VEGFR-2 (Homo sapiens, UniProt P35968); assay: VEGFR-2 quantification by flow cytometry in HT-29; format: cell-based; parameters: Both membrane and total VEGFR-2 were relatively determined using dimethyl sulfoxide (DMSO) treated cells as a negative control; endogenous in cells; host or cells: HT-29 (colon adenocarcinoma) and HMEC-1 (human microvascular endothelial cells); settings: 24 h; for Membrane VEGFR-2 (%) / Total VEGFR-2 (%): HT-29, 10 µM, relative to DMSO control
Description: (§7) We performed the study on both a HT-29 cancer cell line and a human microvessel endothelial cell line (HMEC-1). […] The effect of these selected derivatives on VEGFR-2, on HT-29 tumor cell line and on human microvessel endothelial cells (HMEC) was determined by flow cytometry technique. […] For these assays, cells were incubated for 24 h in the presence of the corresponding compounds at 10 µM concentration.

PD-L1 [6] = molecular target: T1, PD-L1; assay: PD-L1 quantification by flow cytometry in A-549; format: cell-based; parameters: endogenous in cells; host or cells: A-549 cancer cells; settings: A-549, 10 μM, 24 h, referred to control (DMSO)
Description: as §1, §2, §3

[7] = tested on: A549 (pulmonary adenocarcinoma); assay: Cell proliferation assay (MTT); format: cell-based; settings: Homo sapiens, A549, 48 h, 2 days incubation, average ± SD of three experiments
Description: (§4) The ability of Ureas 13–33 to inhibit cell proliferation was established by means of their IC50 values towards the human tumor cell lines HT-29 (colon adenocarcinoma), MCF-7 (breast adenocarcinoma), HeLa (epithelioid cervix carcinoma) and A549 (pulmonary adenocarcinoma), as well as towards the endothelial cell line HMEC-1 (human microvascular endothelial cells) and the non-tumor cell line HEK-293 (human embryonic kidney cells).
(§5) HT-29, MCF-7, HeLa, A549 and HEK-293 cell lines were maintained in Dulbecco’s modified Eagle’s medium (DMEM) containing glucose (1 g/L), glutamine (2 mM), penicillin (50 μg/mL), streptomycin (50 μg/mL), and amphotericin B (1.25 μg/mL), supplemented with 10% FBS. HMEC-1 cell line was maintained in Dulbecco’s modified Eagle’s medium (DMEM)/low glucose containing glutamine (2 mM), penicillin (50 μg/mL), streptomycin (50 μg/mL), and amphotericin B (1.25 μg/mL), supplemented with 10% FBS. For the development of tube formation assays in Matrigel, HMEC-1 cells were cultured in EGM-2MV Medium supplemented with EGM-2MV SingleQuots.
(§6) In 96-well plates, 3 × 10^3 (HeLa, A549, HMEC-1, HEK-293) or 5 × 10^3 (HT-29, MCF-7) cells per well were incubated with serial dilutions of the tested compounds in a total volume of 100 μL of their respective growth media. The 3-(4,5-dimethylthiazol-2-yl)-2,5-diphenyltetrazolium bromide (MTT; Sigma Chemical Co.) dye reduction assay in 96-well microplates was used. After 2 days of incubation (37 °C, 5% CO2 in a humid atmosphere), 10 μL of MTT (5 mg/mL in phosphate-buffered saline, PBS) was added to each well, and the plate was incubated for a further 3 h (37 °C). After that, the supernatant was discarded and replaced by 100 µL of DMSO to dissolve formazan crystals. The absorbance was then read at 540 nm by spectrophotometry. For all concentrations of compound, cell viability was expressed as the percentage of the ratio between the mean absorbance of treated cells and the mean absorbance of untreated cells. Three independent experiments were performed, and the IC50 values (i.e., concentration half inhibiting cell proliferation) were graphically determined using GraphPad Prism 4 software.

[8] = tested on: HMEC-1 (human microvascular endothelial cells); assay: Cell proliferation assay (MTT); format: cell-based; settings: HMEC-1, 48 h, 2 days incubation, average ± SD of three experiments
Description: as §4, §5, §6

[9] = tested on: HT-29 (colon adenocarcinoma); assay: Cell proliferation assay (MTT); format: cell-based; settings: Homo sapiens, HT-29, 48 h, 2 days incubation, average ± SD of three experiments
Description: as §4, §5, §6

[10] = tested on: HEK-293 (human embryonic kidney cells); assay: Cell proliferation assay (MTT); format: cell-based; settings: HEK293, 48 h, 2 days incubation, average ± SD of three experiments
Description: as §4, §5, §6

[11] = tested on: MCF-7 (breast adenocarcinoma); assay: Cell proliferation assay (MTT); format: cell-based; settings: Homo sapiens, MCF7, 48 h, 2 days incubation, average ± SD of three experiments
Description: as §4, §5, §6

[12] = tested on: HeLa (epithelioid cervix carcinoma); assay: Cell proliferation assay (MTT); format: cell-based; settings: Homo sapiens, 48 h, 2 days incubation, average ± SD of three experiments
Description: as §4, §5, §6

VEGFR-2 [13] = molecular target: T2, VEGFR-2; assay: VEGFR-2 quantification by flow cytometry in HMEC-1; format: cell-based; parameters: Both membrane and total VEGFR-2 were relatively determined using dimethyl sulfoxide (DMSO) treated cells as a negative control; endogenous in cells; host or cells: HMEC-1 (human microvascular endothelial cells); settings: 10 µM, 24 h, relative to DMSO control
Description: as §7

HT-29 cells = assay: Cell proliferation evaluation in co-cultures: HT-29 with Jurkat T cells; format: cell-based, human; settings: IFN-γ stimulated HT-29 co-cultured with Jurkat T cells, 10 µM, 24 h; five experiments
Description: We also studied the effect of Compounds 16, 23, 26 and 33 on tumor cell proliferation in the presence of PD-1 expressing Jurkat T-cells. For this assay, first interferon γ stimulated HT-29 cells were treated for 24 h with the selected compounds at 10 µM in presence of Jurkat T cells. Then, living cells were counted using trypan blue and a Neubauer chamber and by flow cytometry.
In 12-well plates, 10^5 HT-29 cells per well were seeded and incubated for 24 h with cell culture medium supplemented with IFN-γ (10 ng/mL; human, Invitrogen®) then medium was change by one containing 4 × 10^5 Jurkat T cells per well and 10 μM of the corresponding compound or DMSO for the control. After 24 h of incubation, supernatants were collected to determine Jurkat T cell living cells and, on the other hand, HT-29 cells were collected with trypsin. Both types of suspension cells were counted with the Neubauer chamber and trypan blue and also by flow cytometry.

HMEC-1 cells = assay: Tube formation inhibition assay; format: cell-based, human; settings: HMEC-1 on Matrigel, 20 h incubation; average of three experiments
Description: as §5
Wells of an IBIDI μ-slide angiogenesis (IBIDI, Martinsried, Germany) were coated with 12 μL of Matrigel® (10 mg/mL, BD Biosciences) at 4 °C. After gelatinization at 37 °C for 30 min, HMEC-1 cells were seeded at 2 × 10^4 cells/well in 35 μL of culture medium on top of the Matrigel and were incubated 30 min at 37 °C while are attached. Then, compounds were added dissolved in 35 μL of culture medium and after 20 h of incubation at 37 °C, tube destruction was evaluated.

T2 sequence (P35968 20-1356): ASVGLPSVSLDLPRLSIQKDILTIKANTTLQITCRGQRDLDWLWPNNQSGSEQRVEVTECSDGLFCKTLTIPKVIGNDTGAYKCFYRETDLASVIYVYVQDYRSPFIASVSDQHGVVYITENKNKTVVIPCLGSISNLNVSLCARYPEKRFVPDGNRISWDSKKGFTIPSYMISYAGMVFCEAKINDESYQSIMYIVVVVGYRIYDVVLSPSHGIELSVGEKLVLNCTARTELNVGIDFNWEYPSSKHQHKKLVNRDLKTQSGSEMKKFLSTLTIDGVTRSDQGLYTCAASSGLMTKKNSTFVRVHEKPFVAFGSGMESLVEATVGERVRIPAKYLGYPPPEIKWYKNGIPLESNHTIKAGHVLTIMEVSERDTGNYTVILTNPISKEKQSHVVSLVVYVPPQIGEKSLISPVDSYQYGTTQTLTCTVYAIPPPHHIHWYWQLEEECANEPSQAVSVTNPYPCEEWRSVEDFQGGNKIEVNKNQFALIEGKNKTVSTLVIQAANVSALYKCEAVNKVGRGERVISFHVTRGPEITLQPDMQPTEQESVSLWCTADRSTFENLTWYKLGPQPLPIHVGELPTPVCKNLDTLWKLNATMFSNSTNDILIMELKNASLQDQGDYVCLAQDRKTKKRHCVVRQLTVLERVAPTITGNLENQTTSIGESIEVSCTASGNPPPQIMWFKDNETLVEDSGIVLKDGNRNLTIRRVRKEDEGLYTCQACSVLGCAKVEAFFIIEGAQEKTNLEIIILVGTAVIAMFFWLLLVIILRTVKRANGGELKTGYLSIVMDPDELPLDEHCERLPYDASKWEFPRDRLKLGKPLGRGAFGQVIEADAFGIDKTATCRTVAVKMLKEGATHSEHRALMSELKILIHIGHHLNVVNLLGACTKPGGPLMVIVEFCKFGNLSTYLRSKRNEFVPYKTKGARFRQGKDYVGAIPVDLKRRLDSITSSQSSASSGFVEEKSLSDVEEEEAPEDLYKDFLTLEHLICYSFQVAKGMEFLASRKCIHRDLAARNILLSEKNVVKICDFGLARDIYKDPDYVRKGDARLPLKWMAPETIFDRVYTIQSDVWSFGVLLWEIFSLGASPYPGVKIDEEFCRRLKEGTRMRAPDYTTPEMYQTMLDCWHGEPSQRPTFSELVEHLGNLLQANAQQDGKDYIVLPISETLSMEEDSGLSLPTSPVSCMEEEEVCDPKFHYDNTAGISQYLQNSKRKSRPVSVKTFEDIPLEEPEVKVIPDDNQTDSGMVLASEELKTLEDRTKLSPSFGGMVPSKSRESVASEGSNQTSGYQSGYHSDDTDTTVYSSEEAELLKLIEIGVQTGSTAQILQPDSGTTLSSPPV
T1 sequence (Q9NZQ7 19-290): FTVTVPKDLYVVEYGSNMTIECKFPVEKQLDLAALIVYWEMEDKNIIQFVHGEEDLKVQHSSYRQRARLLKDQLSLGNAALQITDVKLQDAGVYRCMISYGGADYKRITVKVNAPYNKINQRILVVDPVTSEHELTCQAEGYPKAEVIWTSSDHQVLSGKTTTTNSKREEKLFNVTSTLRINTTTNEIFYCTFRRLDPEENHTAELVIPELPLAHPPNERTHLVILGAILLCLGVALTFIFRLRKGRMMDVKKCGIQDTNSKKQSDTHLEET

| SMILES | PD-L1 (%) relative expression (PD-L1 [3]) | Membrane VEGFR-2 (%) (VEGFR-2 [5]) | Total VEGFR-2 (%) (VEGFR-2 [5]) | PD-L1 (%) relative expression (PD-L1 [6]) | IC50 [7] | IC50 [9] | IC50 [11] | IC50 [12] | Membrane VEGFR-2 (%) (VEGFR-2 [13]) | Total VEGFR-2 (%) (VEGFR-2 [13]) | inhibition at 10 µM (VEGFR-2 [5]; 10 µM, statement for HT-29 and HMEC-1, read-out: inhibition of both membrane and total VEGFR-2) | melting point | IC50 [1] | c-Myc (%) relative expression (c-Myc [2]) | c-Myc (%) relative expression (c-Myc [4]) | IC50 [8] | IC50 [10] | Living HT-29 cell proliferation (%) (HT-29 cells) | Minimum Active Conc. (inhibition of tube formation) (HMEC-1 cells) |
| --- | --- | --- | --- | --- | --- | --- | --- | --- | --- | --- | --- | --- | --- | --- | --- | --- | --- | --- | --- |
| COc1ccc(/C=C/c2cccc(NC(=O)Nc3cccc(Cl)c3)c2)cc1 [Compound 5] | – | – | – | – | – | – | – | – | – | – | – | – | 2 to 11 µM | – | – | – | – | – | – |
| COc1ccc(CCc2cccc(NC(=O)Nc3ccc(OC)cc3)c2)cc1 [Compound 33] | 38 ± 13% | 68 ± 13% | 100 ± 10% | 42 ± 11% | 8 ± 3 µM | 4.4 ± 0.8 µM | 1.5 ± 0.6 µM | 1.4 ± 0.5 µM | 66 ± 5% | 93 ± 8% | – | – | – | 70 ± 10% | 83 ± 12% | 0.9 ± 0.03 µM | 0.9 ± 0.07 µM | 62% | – |
| CNC(=O)c1cc(Oc2ccc(NC(=O)Nc3ccc(Cl)c(C(F)(F)F)c3)cc2)ccn1 [Sorafenib, sorafenib, reference compound] | – | – | – | – | 27 ± 2 µM | 17 ± 4 µM | 14 ± 4 µM | 6.1 ± 0.4 µM | – | – | – | – | – | – | – | 34 ± 3 µM | 5 ± 0.7 µM | – | 10 µM |
| Cc1c(COc2ccc(CN3CCCCC3C(=O)O)cc2Br)cccc1-c1ccccc1 (centres unmarked) [BMS-8, reference compound] | 62 ± 3% | – | – | 68 ± 5% | 6 ± 1 µM | 19 ± 2 µM | 20 ± 3 µM | > 100 µM | – | – | – | – | – | 99 ± 4% | 60 ± 7% | – | 60 ± 10 µM | 45% | – |
| CCN(CC)CCNC(=O)c1c(C)[nH]c(/C=C2\C(=O)Nc3ccc(F)cc32)c1C [Sunitinib, sunitinib, reference compound] | – | – | – | – | – | – | – | – | – | – | – | – | – | – | – | – | – | – | 3 µM |
| COc1ccc(/C=C/c2cccc(NC(=O)Nc3ccc(Cl)cc3)c2)cc1 [Compound 6] | – | – | – | – | – | – | – | – | – | – | – | – | 0.4 to 1.8 µM | – | – | – | – | – | – |

Continued, in another order:

| PD-L1 (%) relative expression (PD-L1 [3]) | Membrane VEGFR-2 (%) (VEGFR-2 [5]) | Total VEGFR-2 (%) (VEGFR-2 [5]) | PD-L1 (%) relative expression (PD-L1 [6]) | IC50 [7] | IC50 [9] | IC50 [11] | IC50 [12] | Membrane VEGFR-2 (%) (VEGFR-2 [13]) | Total VEGFR-2 (%) (VEGFR-2 [13]) | inhibition at 10 µM (VEGFR-2 [5]; 10 µM, statement for HT-29 and HMEC-1, read-out: inhibition of both membrane and total VEGFR-2) | melting point | SMILES | IC50 [1] | c-Myc (%) relative expression (c-Myc [2]) | c-Myc (%) relative expression (c-Myc [4]) | IC50 [8] | IC50 [10] | Living HT-29 cell proliferation (%) (HT-29 cells) | Minimum Active Conc. (inhibition of tube formation) (HMEC-1 cells) |
| --- | --- | --- | --- | --- | --- | --- | --- | --- | --- | --- | --- | --- | --- | --- | --- | --- | --- | --- | --- |
| 33 ± 10% | 68 ± 9% | 95 ± 9% | 50 ± 3% | 13 ± 3 µM | 0.2 ± 0.2 µM | 0.7 ± 0.3 µM | 4 ± 1 µM | 65 ± 9% | 83 ± 7% | – | – | COc1ccc(/C=C/c2cccc(NC(=O)Nc3ccc(OC)cc3)c2)cc1 [Compound 26] | – | 57 ± 9% | 63 ± 7% | 1.9 ± 0.6 µM | 1.4 ± 0.6 µM | 62% | – |
| 18 ± 5% | 36 ± 9% | 39 ± 8% | 16 ± 6% | 3 ± 0.4 µM | 0.4 ± 0.3 µM | 0.3 ± 0.2 µM | 3.1 ± 0.1 µM | 39 ± 5% | 74 ± 8% | > 50% | – | COc1ccc(/C=C/c2cccc(NC(=O)Nc3ccc(Br)cc3)c2)cc1 [Compound 23] | – | 49 ± 8% | 34 ± 4% | 1.8 ± 0.3 µM | 0.7 ± 0.3 µM | 64% | 1 µM |
| – | – | – | – | 38 ± 6 µM | 25 ± 2 µM | 28 ± 5 µM | 30 ± 7 µM | – | – | – | 174 °C | COc1ccc(/C=C\c2cccc(NC(=O)Nc3cccc(Br)c3)c2)cc1 [Compound 15] | – | – | – | 24 ± 4 µM | 23 ± 2 µM | – | – |
